Reference: patent US11472776B2, “Quinazolinones that inhibit the formation of tau oligomers and their method of use” (OLIGOMERIX INC., priority 2016, dated 2022)
Counter-ions that a name gives are not always drawn.

Tests used:
[1] = test system: insoluble tau aggregates; test: Reduction of insoluble tau aggregates in the brains of treated htau mice; type: in vivo
Procedure: (§1) Four groups of htau mice (n=25 per group) were treated from 2.5 to 6.5 months of age with 0, 10, 40 and 100 mg/kg of the compound of Example 20 milled into feed. The study was performed independently and blinded. The primary endpoint of the study was reduction of insoluble tau aggregates in the brains of the mice with statistical significance. […] Methods for biochemical analyses of tau used in this study have been previously described (Acker CM et al. Sensitive quantitative assays for tau and phospho-tau in transgenic mouse models. Neurobiol Aging. 2013. 34:338). The results in FIG. 1 show in vivo efficacy of the compound in reducing tau pathology. Levels of insoluble tau in the cortices of htau mice treated with the compound of Example 20 were determined using the pan-tau monoclonal antibody (mAb) DA31. These values were normalized to total tau in the lysates of the cortex of each mouse. Error bars indicate standard error of the mean. The P values of comparisons of the groups treated with 10, 40 or 100 mg/kg of the compound of Example 20 to the control group (white bar, 0 mg/kg) are 0.0503 (horizontal hatch bar, 10 mg/kg), 0.0154 (diagonal hatch bar, 40 mg/kg) and 0.0488 (vertical hatch bar, 100 mg/kg). * indicates P value <0.05.

[2] = Tolerability over the course of the htau mouse study; type: in vivo; details: all doses (10, 40, 100 mg/kg in feed), htau mice
Procedure: as §1

[3] = biological target: T1, recombinant human tau 4R2N (Homo sapiens (Human), UniProt P10636); test: AlphaLisa Assay (ALA), primary screen for inhibition of tau oligomer formation; type: biochemical; details: tau target 300 nM, 4 hours at room temperature, compound 0.098 uM-50 uM
Description: (§2) Bacterial recombinant human tau 4R2N (the largest isoform of tau in the central nervous system, 441 amino acids in length, Seq. ID 1) constructs with either 6×-His or StrepII N-terminal epitope tags were purified from bacterial lysate using denaturing conditions to prepare tau in its monomeric form.
ALA Assay: AlphaLisa Assay (ALA) was used as a primary screen for identifying compounds that inhibit tau oligomer formation. It is a bead based assay that only gives signal when the beads are in close proximity to each other. When the tau monomer (target) is incubated it forms higher order aggregates (dimer, trimer, tetramer, etc) so that when the donor and acceptor beads bind to the epitope tags of tau they are in close proximity and generate signal.
Tau target (equal mixture of each construct at 300 nM) was prepared in buffer (Tris-HCl pH 7.4) and was incubated in 96-well plates at room temperature for 4 hours with vehicle control (DMSO) and a dose range of a compound of the disclosure (0.098 uM-50 uM). […] The positive control (non-incubated target) & blank (no tau) were prepared and mixed with beads in bead buffer and the plate was read immediately using the EnVision plate reader (Perkin Elmer).

[4] = biological target: T1, recombinant human tau 4R2N; test: Confirmatory Assay (CONFA), SDS-PAGE quantification of tau monomer and oligomers; type: biochemical; details: tau target 300 nM, 3 hours at room temperature, compound 0.098 uM-50 uM
Procedure: as §2
CONFA Assay: Confirmatory Assay (CONFA) used as a secondary screen for confirming the mechanism of action of compounds identified as hits using the ALA assay. The assay is performed using a similar procedure as ALA except that it utilizes SDS-PAGE for visualization and quantification of tau monomer and aggregated species (dimer, trimer, tetramer, pentamer, etc.). Only a single construct of tau without epitope tags is necessary, but the assay can use the same target prepared for the ALA assay also.
For the CONFA assay, Tau target (300 nM) was prepared in buffer (Tris-HCl pH 7.4) and was incubated at room temperature for 3 hours with vehicle control (DMSO) and a dose range of a compound of the disclosure (0.098 uM-50 uM). […] AlphaView software (Protein Simple) was used for quantification of tau monomer and oligomers.

T1 sequence (P10636 other isoform, or with tags, fused parts or gaps): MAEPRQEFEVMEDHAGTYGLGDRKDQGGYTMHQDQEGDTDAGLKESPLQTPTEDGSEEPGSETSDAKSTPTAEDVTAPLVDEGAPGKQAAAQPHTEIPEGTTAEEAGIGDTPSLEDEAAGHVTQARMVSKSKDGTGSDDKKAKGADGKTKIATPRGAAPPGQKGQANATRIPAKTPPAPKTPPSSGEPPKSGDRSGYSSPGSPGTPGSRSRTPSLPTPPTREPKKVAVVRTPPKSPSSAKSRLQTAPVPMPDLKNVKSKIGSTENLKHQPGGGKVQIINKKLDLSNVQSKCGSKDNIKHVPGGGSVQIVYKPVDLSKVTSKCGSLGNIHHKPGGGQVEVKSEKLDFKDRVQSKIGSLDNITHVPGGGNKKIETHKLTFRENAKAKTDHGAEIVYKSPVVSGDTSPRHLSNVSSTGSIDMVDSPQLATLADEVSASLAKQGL

Cc1ccc(-n2c(-c3cccnc3)nc3ccccc3c2=O)cc1O [Ex. 20, 3-(4-Methyl-3-Hydroxyphenyl)-2-(Pyridin-3-yl)Quinazolin-4(3H)-One Hydrochloride]
reduction of insoluble tau, statistical significance ([1]; 40 mg/kg and 100 mg/kg doses, male htau mice): achieved with statistical significance
in vivo activity: reduction of insoluble tau aggregates in the brains of treated htau mice ([1]; FIG. 1 legend): achieved with statistical significance
reduction of insoluble tau ([1]; htau mice, 10, 40 and 100 mg/kg milled into feed, from 2.5 to 6.5 months of age): reduced insoluble tau at all doses
tolerability over the course of the study [2]: well tolerated
toxic effects on weight, behavior or morbidity [2]: did not cause toxic effects on weight, behavior or morbidity

CCc1ccc(-n2c(-c3cccnc3)nc3ccccc3c2=O)cc1O [Ex. 1, 3-(4-Ethyl-3-hydroxyphenyl)-2-(pyridin-3-yl)quinazolin-4(3H)-one]
IC50 [3]: 1900 nM
IC50 [4]: 4.18 µM
